# Data reported in PubChem BioAssay AID1996.
# Conditions: buffer; pH 7.4; 200.0 µM
row,SMILES,solubility kinetic
1,Cc1ccc(C(=O)Nc2cccc(NC(=O)c3ccc(C)o3)n2)o1,4 µg/mL
2,Cc1ccc(C)c(OCCC(=O)OCC(=O)NC(=O)NC2CCCCC2)c1,3.9 µg/mL
3,Cc1ccc(-c2noc(CNC(=O)c3ccoc3C)n2)cc1,32.6 µg/mL
4,CC(CC(=O)NCc1ccc(Cl)cc1)c1ccccc1 (centres undefined),39 µg/mL
5,Cc1cc2nc(C(C)(C)C)cc(N)n2n1,> 30.6 µg/mL
6,Cc1cccc(-n2c(O)c(C=NCCN3CCCCC3)c(=O)[nH]c2=O)c1,> 53.5 µg/mL
7,C#CCOc1c(Cl)cc(/C=C2/C(=O)ON=C2C)cc1OC,43.5 µg/mL
8,c1ccc(CNc2ncnc3scc(-c4cccs4)c23)nc1,37.2 µg/mL
9,CCN1CCCC1CNC(=O)C(=O)NCc1ccccc1 (centres undefined),> 43.4 µg/mL
10,O=C1CC2(CCCC2)C(=O)N1CN1CCN(S(=O)(=O)c2ccc(F)cc2F)CC1,> 64.1 µg/mL
11,Cc1ccc(N(Cc2cc(=O)[nH]c3ccccc23)C(=O)C(C)C)cc1,47.5 µg/mL
12,S=C(NCc1ccc(Cl)cc1)Nc1ccncc1,> 41.7 µg/mL
13,Cn1c(=O)c(C(=O)NCCc2ccccc2)c(O)c2ccccc21,0.5 µg/mL
14,COc1ccc(C(=O)Nc2nc3ccc(OC)cc3s2)cc1,1.4 µg/mL
15,COc1cc2cc(-c3ccc(OC)c(OC)c3C)nc(N)c2cc1OC,46.8 µg/mL
16,Oc1ccc(/C=N/NC(=S)N2CCOCC2)cc1,> 39.8 µg/mL
17,CC(CCc1ccccc1)NC(=O)Cc1cccs1 (centres undefined),36 µg/mL
18,CC(=O)N[C@@H](Cc1c[nH]c2ccccc12)C(=O)OCc1cc(C(F)(F)F)cc(C(F)(F)F)c1,3.4 µg/mL
19,NC(=O)COC(=O)c1c2c(nc3ccccc13)CCCC2,39.4 µg/mL
20,Cc1noc(C)c1COc1ccc(C(=O)N2CCC(C(N)=O)CC2)cc1,> 53.6 µg/mL

row,SMILES,solubility kinetic
1,Cc1ccccc1SCC(=O)NCC(c1ccc(F)cc1)N1CCOCC1 (centres undefined),> 58.3 µg/mL
2,COc1ccc(Cl)cc1S(=O)(=O)n1c([N+](=O)[O-])cnc1C,31.1 µg/mL
3,COc1cccc(-n2c(=S)[nH]c3c(oc4ccccc43)c2=O)c1,45.3 µg/mL
4,CCc1ccc(NC(=S)N2CCCC2)cc1,> 35.2 µg/mL
5,Cc1ccc2c(c1)=C/C(=C\c1c(O)[nH]c(=O)[nH]c1=O)C(=O)N=2,< 0.2 µg/mL
6,CCN(CC(=O)Nc1ccc2c(c1)OCCO2)C(=O)c1ccc(CS(C)(=O)=O)cc1,> 64.9 µg/mL
7,Cc1cc(F)ccc1NC(=O)Nc1ccc2c(c1)OCO2,< 0.3 µg/mL
8,Cc1cc2oc(=O)cc(CN(C)Cc3cccc(F)c3)c2cc1C,1.2 µg/mL
9,Cc1ccc(CNC(=O)CNC(=O)c2ccc(C(C)(C)C)cc2)n1C,> 51.2 µg/mL
10,Cc1ccc(-c2csc(NC(=O)Cc3ccc(F)cc3)n2)o1,12.5 µg/mL
11,COc1ccc(F)cc1S(=O)(=O)NCCN1CCOCC1,> 47.8 µg/mL
12,O=C(NCCc1cnc[nH]1)c1ccc(-c2ccccc2)cc1,28.2 µg/mL
13,O=C(NC1=NCCCCC1)c1cccc2ccccc12,> 40 µg/mL
14,Cc1cc(C(=O)COC(=O)c2ccco2)c(C)n1Cc1ccco1,2.5 µg/mL
15,O=S(=O)(c1ccc(-c2ccccc2)cc1)N1CCCCC1,< 0.6 µg/mL
16,Cc1ccc2ncnc(Nc3ccccc3)c2c1,11.6 µg/mL
17,CC(C)C(=O)NC(=O)COC(=O)/C=C/c1cccs1,21.6 µg/mL
18,COc1ccc(C)cc1NC(=O)c1ccc(OCc2c(C)noc2C)cc1,0.9 µg/mL
19,Cc1sc2c3ccsc3ccc2[n+]1C.[I-],36.3 µg/mL
20,CC(NC(=O)c1ccc(S(=O)(=O)Nc2ccccc2Cl)cc1)c1ccncc1 (centres undefined),> 62.4 µg/mL

row,SMILES,solubility kinetic
1,COc1ccc(S(=O)(=O)Nc2ncccc2C)c2ccccc12,37.6 µg/mL
2,COc1ccc(C)cc1S(=O)(=O)n1cnc(C)c1,> 39.9 µg/mL
3,CC1CCC(NC(=O)C2COc3ccccc3O2)CC1 (centres undefined),5.5 µg/mL
4,C=CCNc1ccc(N2C(=O)CCCC2=O)cc1[N+](=O)[O-],> 43.4 µg/mL
5,O=C1OCC2=C1C(c1ccccc1)CC(=O)N2c1cccc(F)c1 (centres undefined),44.3 µg/mL
6,Cc1ccc(OCCNC(=O)CNC(=O)c2ccc(Cl)c([N+](=O)[O-])c2)cc1,12.6 µg/mL
7,CC(NC(=S)NC1CCC(C(C)(C)C)CC1)c1ccccc1 (centres undefined),< 0.3 µg/mL
8,O=C1CN(C(=O)c2ccccc2C(=O)O)c2ccccc2N1,> 44.4 µg/mL
9,O=C(CSC1=NCCN1)Nc1ccccc1[N+](=O)[O-],> 42 µg/mL
10,Cc1ccc2oc(C(=O)NC3CCS(=O)(=O)C3)c(C)c2c1 (centres undefined),27.5 µg/mL
11,O=C(CSc1nccc(-c2cccs2)n1)Nc1ccc(F)c(Cl)c1,1.4 µg/mL
12,Cc1ccc(CCSc2ccc(F)cc2)cn1.O=C(O)C(=O)O,25.2 µg/mL
13,CCC(=O)N(C(=O)CC)N1CCN(c2ccncc2S(=O)(=O)N2CCCCC2)CC1,> 65.6 µg/mL
14,CC(=O)c1ccc(NC(=O)Cc2ccsc2)cc1,> 38.9 µg/mL
15,Cc1cccn2c(=O)c(C=O)c(N3CCSCC3)nc12,16.2 µg/mL
16,S=C(Nc1ccc(Cl)c(Cl)c1)N1CCCC1,3.3 µg/mL
17,Cc1cc(=O)[nH]c2ccc(S(=O)(=O)NCc3ccccc3)cc12,2.5 µg/mL
18,O=C1c2ccccc2C(=O)N1CCOc1ccccc1Cl,3.5 µg/mL
19,O=C(CS(=O)(=O)c1ccccc1)NCc1ccccc1,> 43.4 µg/mL
